One data set deals with T1, Recombinant NAMPT enzyme (Homo sapiens, UniProt P43490).
T1 construct: purchased MBL
Nature of the data set: Inhibition of NAMPT enzymatic activity. Type of data set: biochemical. The conditions noted are these: for IC50: 6 hours at 37° C., NMN product detected. As for the experimental part:
Recombinant NAMPT enzyme (MBL) was briefly pre-incubated in the absence or presence of inhibitor followed by addition of nicotinamide. Enzymatic reaction was allowed to proceed for 6 hours at 37° C. Reaction was terminated and NMN reaction product detected using the method as described in: Zhang R Y, Qin Y, Lv X Q, Wang P, Xu T Y, Zhang L, Miao C Y., Anal. Biochem. 2011 May 1; 412(1):18-25.
(§1) The 50% inhibitory concentration (IC50) is the concentration at which 50% of the maximal activity was inhibited.

Data set [1] deals with acute T-cell leukemia (JURKAT). The data set is described as follows: Anti-proliferative activity on JURKAT cell line. Type of data set: cell-based. The conditions noted are these: Homo sapiens, 72 h, CellTiterGlo. As for the experimental part: (§2) Leukemia/Lymphoma cell lines (ATCC) were diluted in vendor-recommended media and incubated in the absence or presence of inhibitor for 72 hours at 37° C./5% CO2 prior to viability determination using CellTiterGlo (Promega) per manufacturer's instruction. The human cell lines studied include acute T-cell leukemia (JURKAT), chronic myelogenous leukemia (K562), and B-cell acute lymphocytic leukemia (NALM6 and SUP-B15).

The test system of another data set is Sup-B15 cells. Nature of the data set: Mechanism of action: NMN rescue of viability. It counts as cell-based, human. The conditions noted are these: 200 μM NMN, 72 hours. On the procedure: Sup-B15 cells (ATCC) were incubated in media lacking or containing 200 μM nicotinamide mononucleotide (NMN) (Sigma) in the absence or presence of inhibitor for 72 hours at 37° C./5% CO2 prior to viability determination using CellTiterGlo (Promega) per manufacturer's instruction.

Data set [2] relates to chronic myelogenous leukemia (K562). Nature of the data set: Anti-proliferative activity on K562 cell line. Type of data set: cell-based. The note with it: Homo sapiens, K562, 72 h, CellTiterGlo. As for the experimental part:
as §2
(In general: ATP-based viability assays read luminescence as a measure of living cells.)

The test system of a further data set is primary human B cells. Nature of the data set: Anti-proliferative activity on B cells (anti-IgM stimulated, CellTiterGlo). The note with it: B-cell, 72 h, anti-IgM 10 ug/ml. It counts as cell-based. On the procedure:
Fresh primary human B cells obtained from Analytical Biological Services (Wilmington, Del.) were diluted to 1×10^^6 cells per ml in AIM-V medium (Invitrogen), and stimulated with anti-IgM (10 ug/ml) (KPL) in the absence or presence of inhibitor for 72 hours at 37° C./5% CO2 prior to viability determination using CellTiterGlo (Promega) per manufacturer's instruction.
as §1

The test system of a further data set is NALM6 leukemia model. Nature of the data set: NALM6 leukemia study (survival). Type of data set: in vivo, female CB17SCID/Crl mice. The note with it: i.p. twice daily for 35 days, compared with clofarabine. As for the experimental part:
4-(1′-isopropyl-4-oxospiro[chroman-2,4′-piperidin]-6-yl)-N-((3-methylisoxazol-5-yl)methyl)benzamide was tested in the NALM6 leukemia model. […] 5×10^^6 NALM-6 cells were injected via tail vein into female CB17SCID/Crl mice (Charles River). One week later, 4-(1′-isopropyl-4-oxospiro[chroman-2,4′-piperidin]-6-yl)-N-((3-methylisoxazol-5-yl)methyl)benzamide was administered by i.p. injection twice daily for 35 days. Clofarabine was administered once daily by i.p. injection once daily for 5 days for four weeks. Study endpoint was survival time, and mice were sacrificed upon appearance of systemic signs of severe disease such as paralysis or cachexia.

For another data set, the system named is primary human T cells. Nature of the data set: Anti-proliferative activity on T cells (CD3/CD28 stimulated, CellTiterGlo). It counts as cell-based. The conditions noted are these: T-cell, 72 h, CD3/CD28 beads. On the procedure: Fresh primary human T cells obtained from Analytical Biological Services (Wilmington, Del.) were diluted to 1×10^^6 cells per ml in AIM-V medium (Invitrogen), and stimulated with CD3/CD28 beads (Invitrogen) in the absence or presence of inhibitor for 72 hours at 37° C./5% CO2 prior to viability determination using CellTiterGlo (Promega) per manufacturer's instruction.
as §1

A further data set deals with HCT116 solid tumor model. The data set is described as follows: HCT116 tumor growth study. Type of data set: in vivo, Female athymic nude mice. The conditions noted are these: oral twice daily. On the procedure: Tumor Growth Study: Female athymic nude mice (Crl:NU(Ncr)-Foxn1nu, Charles River) (n=10/group) were injected with 5×10^6 HCT116 cells, and treatment was initiated at average tumor size of 100 mm^3. 4-(1′-isopropyl-4-oxospiro[chroman-2,4′-piperidin]-6-yl)-N-((3-methylisoxazol-5-yl)methyl)benzamide and vehicle control were administered orally twice daily for 8 days. Tumor size was measured twice weekly with calipers.
4-(1′-isopropyl-4-oxospiro[chroman-2,4′-piperidin]-6-yl)-N-((3-methylisoxazol-5-yl)methyl)benzamide was also tested in the HCT116 solid tumor model.

In a further data set the target is T2, Sup-B15 cell extract (Homo sapiens, UniProt P43490).
T2 construct: host or cells: Sup-B15 cells
T2 sequence (P43490 whole entry): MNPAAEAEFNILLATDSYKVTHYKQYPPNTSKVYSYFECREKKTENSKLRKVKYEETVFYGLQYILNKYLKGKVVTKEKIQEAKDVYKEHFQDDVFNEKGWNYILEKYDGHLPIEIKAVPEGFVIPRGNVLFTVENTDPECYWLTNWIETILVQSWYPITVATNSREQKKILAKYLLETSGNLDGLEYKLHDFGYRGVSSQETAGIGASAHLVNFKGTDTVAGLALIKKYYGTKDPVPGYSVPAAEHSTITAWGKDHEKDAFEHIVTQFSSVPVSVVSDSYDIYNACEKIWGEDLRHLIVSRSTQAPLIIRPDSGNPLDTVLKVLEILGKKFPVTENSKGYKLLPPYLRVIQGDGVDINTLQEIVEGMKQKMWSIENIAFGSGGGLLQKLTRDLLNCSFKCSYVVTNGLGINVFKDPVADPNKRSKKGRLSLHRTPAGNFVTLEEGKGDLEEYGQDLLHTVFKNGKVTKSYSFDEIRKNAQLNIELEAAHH
The data set is described as follows: Chemical proteomics pull-down from Sup-B15 cell extract. It counts as binding. The conditions noted are these: biotinylated derivative, streptavidin beads, elution with free compound, LC/MS. On the procedure:
Chemical proteomics. Sup-B15 cell extract was incubated with a biotinylated derivative of 4-(1′-isopropyl-4-oxospiro[chroman-2,4′-piperidin]-6-yl)-N-((3-methylisoxazol-5-yl)methyl)benzamide, followed by collection of compound/protein complexes with streptavidin beads (Invitrogen). […] Following SDS-PAGE, one prominent band was excised and identified by LC/MS as NAMPT.

For data set [3], the system named is B-cell acute lymphocytic leukemia (SUP-B15). Nature of the data set: Anti-proliferative activity on SUP-B15 cell line. It counts as cell-based. The conditions noted are these: Homo sapiens, SUP-B15, 72 h, CellTiterGlo. On the procedure: as §2
The test system of data set [4] is B-cell acute lymphocytic leukemia (NALM6). The data set is described as follows: Anti-proliferative activity on NALM6 cell line. It counts as cell-based. The conditions noted are these: Homo sapiens, NALM-6, 72 h, CellTiterGlo. On the procedure:
as §2

T1 sequence (P43490 whole entry): as above

For the compound `Cc1cc(CNC(=O)c2ccc(-c3ccc4c(c3)C(=O)CC3(CCN(C(C)C)CC3)O4)cc2)on1` [4-(1′-isopropyl-4-oxospiro[chroman-2,4′-piperidin]-6-yl)-N-((3-methylisoxazol-5-yl)methyl)benzamide], the “inhibition of NAMPT enzyme activity” value on Recombinant NAMPT enzyme is given as “potently inhibits NAMPT enzyme activity”. Besides, the IC50 (usually the concentration needed to halve the response being measured) worked out at 0.9 nM on Recombinant NAMPT enzyme; 17.9 nM in data set [1]; 68.1 nM in [2]; 22.7 nM with primary human B cells; 4380 nM in the data set on primary human T cells; 2.44 nM in [3]. In data set [4], inhibition was half-maximal at 15 nM (IC50). Further, in the data set with Sup-B15 cells, the “effect of NMN on anti-proliferative activity” value was “counteracted by NMN”. The survival result in the data set on NALM6 leukemia model is given as “significant survival benefit in this xenograft model, in excess of the standard of care (clofarabine)”. In the data set on HCT116 solid tumor model, the “mortality in the treated group” value was found to be 10%. For the same compound, the “persistence of tumor growth delay after dosing was stopped” value in the data set on HCT116 solid tumor model was “persisted for at least one week after dosing was stopped”. Besides, the tumor growth entry with HCT116 solid tumor model was “significant tumor growth delay”. Besides, the molecular target identified entry on Sup-B15 cell extract is on record as “nicotinamide phosphoribosyl transferase (NAMPT)”.

Consider `Cc1cc(CNC(=O)c2ccc(-c3ccc4c(c3)C(=O)CC3(CCN(C(C)C)CC3)O4)cc2)no1` [4-(1′-isopropyl-4-oxospiro[chroman-2,4′-piperidin]-6-yl)-N-((5-methylisoxazol-3-yl)methyl)benzamide], for which the IC50 on Recombinant NAMPT enzyme stood at 1 nM; in data set [1], 10.7 nM; in data set [2] it was 63.6 nM; in the data set with primary human B cells, 11.3 nM; in the data set with primary human T cells, 3240 nM; in data set [3], 1.17 nM. The compound further had an IC50 in [4] of 2.69 nM.

Consider `CC(C)N1CCC2(CC1)Oc1ccc(-c3ccc(C(=O)NCc4cncs4)cn3)cc1C(=O)N2C` [6-(1′-isopropyl-3-methyl-4-oxo-3,4 dihydrospiro[benzo[e][1,3]oxazine-2,4′-piperidin]-6-yl)-N-(thiazol-5-ylmethyl)nicotinamide], for which the IC50 at Recombinant NAMPT enzyme came to 107 nM; in data set [1], 33 nM; in data set [2], 75.7 nM; in the data set on primary human B cells, 25.4 nM; in the data set on primary human T cells, 1550 nM; in data set [3] it was 2.14 nM. The same compound gave an IC50 in [4] of 17.6 nM.

In the case of `CC(C)N1CCC2(CC1)Oc1ccc(-c3ccc(C(=O)CCc4cncs4)cc3)cc1C(=O)N2C` [1′-isopropyl-3-methyl-6-(4-(3-(thiazol-5-yl)propanoyl)phenyl)spiro[benzo[e][1,3]oxazine-2,4′-piperidin]-4(3H)-one], the IC50 on Recombinant NAMPT enzyme is 166 nM; in [1] it was 34.7 nM; in [2], 112 nM; with primary human B cells, 40.8 nM; in the data set on primary human T cells, 3190 nM; in data set [3] it was 2.85 nM. Half-maximal inhibition in data set [4] (IC50) was put at 18.6 nM.

Take `CCN1CCC2(CC1)CC(=O)c1cc(-c3ccc(C(=O)NCc4cncs4)cn3)ccc1O2` [6-(1′-ethyl-4-oxospiro[chroman-2,4′-piperidin]-6-yl)-N-(thiazol-5-ylmethyl)nicotinamide]: the IC50 at Recombinant NAMPT enzyme is 271 nM; in data set [1] it was 43.6 nM; in [2], 180 nM; in the data set on primary human B cells, 50.9 nM; in the data set on primary human T cells it was 3360 nM; in data set [3], 5.15 nM. The same compound came in with an IC50 in data set [4] of 21.6 nM.

For the compound `CC(C)N1CCC2(CC1)CC(=O)c1cc(-c3ccc(C(=O)NCc4cncc(F)c4)cc3)ccc1O2` [N-((5-fluoropyridin-3-yl)methyl)-4-(1′-isopropyl-4-oxospiro[chroman-2,4′-piperidin]-6-yl)benzamide], the half-maximal inhibitory concentration (IC50) at Recombinant NAMPT enzyme worked out at 5.5 nM; in [1], 20.4 nM; in data set [2], 78.8 nM; with primary human B cells, 7.9 nM; with primary human T cells, 3300 nM; in data set [3], 1.1 nM. This compound also displayed an IC50 in data set [4] of 8.8 nM.

As to `Cc1cc(CNC(=O)c2ccc(-c3ccc4c(c3)C(=O)NC3(CCN(C(C)C)CC3)O4)nc2)on1` [6-(1′-isopropyl-4-oxo-3,4-dihydrospiro[benzo[e][1,3]oxazine-2,4′-piperidin]-6-yl)-N-((3-methylisoxazol-5-yl)methyl)nicotinamide], the IC50 on Recombinant NAMPT enzyme amounted to 3 nM; in data set [1], 24.8 nM; in data set [2] it was 876 nM; in the data set on primary human B cells, 29.2 nM; with primary human T cells, 14600 nM; in data set [3], 3.19 nM. Further, inhibition in data set [4] was half-maximal at 17.1 nM (IC50).

For `CCCCONC(=O)c1ccc(-c2ccc3c(c2)C(=O)CC2(CCN(C(C)C)CC2)O3)nc1` [N-butoxy-6-(1′-isopropyl-4-oxospiro[chroman-2,4′-piperidin]-6-yl)nicotinamide], the IC50 on Recombinant NAMPT enzyme was determined as 1.4 nM; in data set [1], 23.3 nM; in data set [2] it was 282 nM; with primary human B cells it was 45 nM; in the data set on primary human T cells, 7370 nM; in data set [3], 3.02 nM. In [4], half-maximal inhibition (IC50) required 15.6 nM.

Turning to `O=C(NCc1cncc(F)c1)c1ccc(-c2ccc3c(n2)C(=O)CC2(CCN(CC4CCC4)CC2)O3)cc1` [4-(1-(cyclobutylmethyl)-4′-oxo-3′,4′-dihydrospiro[piperidine-4,2′-pyrano[3,2-b]pyridin]-6′-yl)-N-((5-fluoropyridin-3-yl)methyl)benzamide], the IC50 was found to be 66.4 nM on Recombinant NAMPT enzyme; 154 nM in data set [1]; 332 nM in data set [2]; 83 nM in the data set on primary human B cells; 3990 nM in the data set with primary human T cells; 7.29 nM in [3]. Further, the IC50 in data set [4] stood at 48.9 nM.

The record behind these values is patent publication US10017523B2, “NAMPT inhibitors and methods” (Genzyme Corporation, priority 2014, dated 2018).
